In paper PMC4971072, “Chemically Homogenous Compounds with Antagonistic Properties at All α1-Adrenoceptor Subtypes but not β1-Adrenoceptor Attenuate Adrenaline-Induced Arrhythmia in Rats” (Frontiers in Pharmacology, 2016):
Structures can show the parent of a compound that is named as a salt. Marks after values point to notes of the source that are not given here.

Legend:
[1] = molecular target: α1-adrenoceptor; experiment: α1-adrenoceptor radioligand binding assay ([3H]-prazosin, rat cerebral cortex); details: read-out: Adrenergic receptors Ki α1
Description: The α1- and β1-adrenoceptor radioligand binding assay was performed on rat cerebral cortex. […] The cell pellet was resuspended in the Tris–HCl buffer and centrifuged again. Radioligand binding assays were performed in plates (MultiScreen/Millipore). […] The incubation was terminated by rapid filtration through glass fiber filters (Whatman GF/C) using a vacuum manifold (Millipore). The filters were then washed twice with the assay buffer and placed in scintillation vials with a liquid scintillation cocktail. […] All the assays were made in duplicate and the inhibitory constants (Ki) were estimated.
LO–labeled ligand concentration, KD–dissociation constant of labeled ligand

[2] = test system: normal ECG in rats; experiment: The effect on normal electrocardiogram in rats; format: in vivo, rat; details: anesthetized rats
Description: The experiment was carried out to exclude the influence of tested compounds on normal ECG. […] The influence on QRS complex, PQ interval, heart rate (RR), and QTc interval was determined.

[3] = test system: adrenaline-induced arrhythmia in rats; experiment: Prophylactic antiarrhythmic activity in adrenaline-induced arrhythmia; format: in vivo, rat
Description: The studied compounds were administered i.p. 45 min before the injection of adrenaline, calcium chloride, or barium chloride. The electrocardiogram (ECG) was recorded during the first 2 min as well as in the 5th, 10th, and 15th min after the arrhythmogen injection. […]

[4] = test system: blood pressure in normotensive rats; experiment: Influence on blood pressure in normotensive rats; format: in vivo, rat; set-up: Systolic pressure / Diastolic pressure: unit not given beside the values; details: for Diastolic pressure / Systolic pressure: anesthetized normotensive rats
Description: The tested compounds were administered i.p. after 15 min of stabilization period. The compounds were administered at the dose 10 mg/kg.

[5] = molecular target: T1, α1D-adrenoreceptors (Rattus norvegicus, UniProt P23944); experiment: Functional bioassay, isolated rat aorta, noradrenaline contraction; format: biochemical; set-up: had aorta removed, denuded of endothelium and incubated in the Krebs-Henseleit solution; from tissue; host or cells: isolated rat aorta rings; details: noradrenaline as agonist
T1 sequence (P23944 1-561): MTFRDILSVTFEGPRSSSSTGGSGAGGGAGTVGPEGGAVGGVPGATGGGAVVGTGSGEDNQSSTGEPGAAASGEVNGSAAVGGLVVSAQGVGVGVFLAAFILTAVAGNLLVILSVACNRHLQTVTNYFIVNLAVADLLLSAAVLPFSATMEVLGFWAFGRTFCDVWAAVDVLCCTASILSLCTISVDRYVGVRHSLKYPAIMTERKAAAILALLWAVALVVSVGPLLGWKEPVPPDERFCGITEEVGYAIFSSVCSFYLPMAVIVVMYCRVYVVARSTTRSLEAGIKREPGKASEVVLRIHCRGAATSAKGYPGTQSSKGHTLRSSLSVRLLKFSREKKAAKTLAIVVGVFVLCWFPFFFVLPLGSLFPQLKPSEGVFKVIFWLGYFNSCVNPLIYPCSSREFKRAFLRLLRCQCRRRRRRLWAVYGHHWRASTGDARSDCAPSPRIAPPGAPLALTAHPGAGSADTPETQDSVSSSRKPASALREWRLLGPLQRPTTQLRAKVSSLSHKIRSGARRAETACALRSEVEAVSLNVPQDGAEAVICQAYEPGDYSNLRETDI
Description: Finally, the influence on α1D-adrenoreceptors was investigated using the isolated rat aorta. […] The aorta rings were maintained at optimal tension of 2.0 g. During 3 h of equilibration tissues were stimulated with noradrenaline three times (0.3 μM). Two cumulative concentration-response curves to noradrenaline, at an interval of 60 min, were established on each tissue both in the presence and absence of antagonist. The incubation with antagonists went on for 30 min. The experiments were carried out in the constant presence of yohimbine (0.1 μM) and propranolol (1 μM) to block α2- and β-adrenoceptors, respectively.
Data are means ± S.E.M. of at least 4 separate experiments. To establish Hill slopes for the agonist concentration–response curves and calculate EC50 values, curves were fitted to all the data by non-linear regression. The EC50 value in the presence and absence of antagonists was used to ascertain the concentration ratio (CR). Schild analysis was performed.

[6] = i.p. at ED84, 0 min (initial values)
[7] = dose 0.1 mg/kg i.p. 45 min before adrenaline 20 μg/kg i.v.
[8] = dose 0.2 mg/kg i.p. 45 min before adrenaline 20 μg/kg i.v.
[9] = dose 0.3 mg/kg i.p. 45 min before adrenaline 20 μg/kg i.v.
[10] = lowest hypotensive dose i.p., 5 min
[11] = lowest hypotensive dose i.p., 10 min
[12] = lowest hypotensive dose i.p., 20 min
[13] = lowest hypotensive dose i.p., 30 min
[14] = lowest hypotensive dose i.p., 40 min
[15] = lowest hypotensive dose i.p., 50 min
[16] = lowest hypotensive dose i.p., 60 min
[17] = lowest hypotensive dose i.p., Control (before administration)
[18] = normotensive rats, lowest hypotensive dose i.p., period of significant effect

`COc1ccccc1N1CCN(CCCOc2cc(C)cc(C)c2C)CC1` [HBK-19, 1N-[3-(2,3,5-trimethylphenoxy)propyl]-4N-(2-methoxyphenyl)piperazine hydrochloride] was tested, and the Ki [1] was 22.7 nM, the “influence on ECG parameters (PQ interval, QRS complex, QTc interval)” value ([2]; i.p. at ED84) was “without the influence on PQ interval, QRS complex, or QTc interval” and the “reduction of heart rate” value ([2]; i.p. at ED84, over the period of significant effect vs. initial values) was 21−22%. The “Beats/min (ECG)” value [2, 6] was 355.3 ± 19.7 Beats/min, the “PQ (ECG)” value [2, 6] was 56.7 ± 0.7 ms and the “QRS (ECG)” value [2, 6] was 35.7 ± 1.0 ms. For the same compound, the “QT (ECG)” value [2, 6] was 76.4 ± 8.2 ms, the “QTc (ECG, Bazett)” value [2, 6] was 186.9 ± 24.6 ms and the “Beats/min (ECG)” value ([2]; i.p. at ED84, 5 min) was 349.7 ± 25.3 Beats/min. For the same compound, the “PQ (ECG)” value ([2]; i.p. at ED84, 5 min) was 56.6 ± 0.0 ms, the “QRS (ECG)” value ([2]; i.p. at ED84, 5 min) was 34.7 ± 1.6 ms and the “QT (ECG)” value ([2]; i.p. at ED84, 5 min) was 76.9 ± 1.1 ms. For the same compound, the “QTc (ECG, Bazett)” value ([2]; i.p. at ED84, 5 min) was 185.5 ± 9.5 ms, the “Beats/min (ECG)” value ([2]; i.p. at ED84, 10 min) was 339.1 ± 21.0 Beats/min and the “PQ (ECG)” value ([2]; i.p. at ED84, 10 min) was 56.0 ± 0.0 ms. For the same compound, the “QRS (ECG)” value ([2]; i.p. at ED84, 10 min) was 34.0 ± 0.3 ms, the “QT (ECG)” value ([2]; i.p. at ED84, 10 min) was 77.5 ± 0.5 ms and the “QTc (ECG, Bazett)” value ([2]; i.p. at ED84, 10 min) was 184.2 ± 6.9 ms. For the same compound, the “Beats/min (ECG)” value ([2]; i.p. at ED84, 15 min) was 280.1 ± 1.1^c Beats/min, the “PQ (ECG)” value ([2]; i.p. at ED84, 15 min) was 58.2 ± 1.8 ms and the “QRS (ECG)” value ([2]; i.p. at ED84, 15 min) was 32.0 ± 1.2 ms. For the same compound, the “QT (ECG)” value ([2]; i.p. at ED84, 15 min) was 82.2 ± 2.2 ms, the “QTc (ECG, Bazett)” value ([2]; i.p. at ED84, 15 min) was 177.6 ± 4.4 ms and the “Beats/min (ECG)” value ([2]; i.p. at ED84, 20 min) was 277.2 ± 5.0^c Beats/min. The “PQ (ECG)” value ([2]; i.p. at ED84, 20 min) was 60.1 ± 1.3 ms, the “QRS (ECG)” value ([2]; i.p. at ED84, 20 min) was 32.7 ± 0.4 ms and the “QT (ECG)” value ([2]; i.p. at ED84, 20 min) was 84.3 ± 1.1 ms. The “QTc (ECG, Bazett)” value ([2]; i.p. at ED84, 20 min) was 181.1 ± 4.1 ms, the “Beats/min (ECG)” value ([2]; i.p. at ED84, 30 min) was 278.2 ± 6.7^c Beats/min and the “PQ (ECG)” value ([2]; i.p. at ED84, 30 min) was 60.1 ± 1.7 ms. The “QRS (ECG)” value ([2]; i.p. at ED84, 30 min) was 34.3 ± 0.2 ms, the “QT (ECG)” value ([2]; i.p. at ED84, 30 min) was 82.2 ± 0.4 ms and the “QTc (ECG, Bazett)” value ([2]; i.p. at ED84, 30 min) was 177.0 ± 3.0 ms. For the same compound, the “Beats/min (ECG)” value ([2]; i.p. at ED84, 40 min) was 332.8 ± 18.9 Beats/min, the “PQ (ECG)” value ([2]; i.p. at ED84, 40 min) was 59.3 ± 0.7 ms and the “QRS (ECG)” value ([2]; i.p. at ED84, 40 min) was 32.0 ± 3.1 ms. The “QT (ECG)” value ([2]; i.p. at ED84, 40 min) was 81.5 ± 2.5 ms, the “QTc (ECG, Bazett)” value ([2]; i.p. at ED84, 40 min) was 192.2 ± 11.2 ms and the “Beats/min (ECG)” value ([2]; i.p. at ED84, 50 min) was 396.8 ± 31.8 Beats/min. For the same compound, the “PQ (ECG)” value ([2]; i.p. at ED84, 50 min) was 55.1 ± 0.3 ms, the “QRS (ECG)” value ([2]; i.p. at ED84, 50 min) was 36.0 ± 1.5 ms and the “QT (ECG)” value ([2]; i.p. at ED84, 50 min) was 76.5 ± 0.5 ms. The “QTc (ECG, Bazett)” value ([2]; i.p. at ED84, 50 min) was 196.2 ± 6.9 ms, the “Beats/min (ECG)” value ([2]; i.p. at ED84, 60 min) was 398.0 ± 32.4 Beats/min and the “PQ (ECG)” value ([2]; i.p. at ED84, 60 min) was 56.3 ± 1.1 ms. For the same compound, the “QRS (ECG)” value ([2]; i.p. at ED84, 60 min) was 30.3 ± 1.1 ms, the “QT (ECG)” value ([2]; i.p. at ED84, 60 min) was 80.2 ± 0.4 ms and the “QTc (ECG, Bazett)” value ([2]; i.p. at ED84, 60 min) was 206.3 ± 9.6 ms. The ED50 ([3]; Rattus norvegicus, read-out: ED50 (confidence limits)) was 0.21 mg/kg, the “Bigeminy (%)” value [3, 7] was 33.3% and the “Blocks (%)” value [3, 7] was 50.0%. The “Bradycardia (%)” value [3, 7] was 66.7%, the “Extrasystoles (%)” value [3, 7] was 66.7% and the “Bigeminy (%)” value [3, 8] was 16.7%. The “Blocks (%)” value [3, 8] was 33.3%, the “Bradycardia (%)” value [3, 8] was 33.3% and the “Extrasystoles (%)” value [3, 8] was 50.0%. The “Blocks (%)” value [3, 9] was 16.7%, the “Bradycardia (%)” value [3, 9] was 16.7% and the “Extrasystoles (%)” value [3, 9] was 16.7%. The Diastolic pressure [4, 10] was 94.5 ± 2.6, the Systolic pressure [4, 10] was 121.0 ± 4.0^b and the Diastolic pressure [4, 11] was 87.5 ± 0.4^c. For the same compound, the Systolic pressure [4, 11] was 116.0 ± 3.5^c, the Diastolic pressure [4, 12] was 89.0 ± 2.3^b and the Systolic pressure [4, 12] was 111.5 ± 3.2^c. For the same compound, the Diastolic pressure [4, 13] was 87.0 ± 2.9^c, the Systolic pressure [4, 13] was 110.0 ± 2.3^c and the Diastolic pressure [4, 14] was 84.5 ± 1.4^c. The Systolic pressure [4, 14] was 107.5 ± 3.2^c, the Diastolic pressure [4, 15] was 83.5 ± 1.4^c and the Systolic pressure [4, 15] was 106.0 ± 3.5^c. For the same compound, the Diastolic pressure [4, 16] was 84.0 ± 0.6^c, the Systolic pressure [4, 16] was 106.0 ± 4.0^c and the Diastolic pressure [4, 17] was 98.0 ± 4.6. The Systolic pressure [4, 17] was 127.0 ± 4.0, the lowest hypotensive dose ([4]; normotensive rats, lowest dose significantly lowering systolic and diastolic blood pressure) was 0.625 mg/kg and the “reduction of diastolic blood pressure” value [4, 18] was 9−15%. For the same compound, the “reduction of systolic blood pressure” value [4, 18] was 5−17%, the “Schild slope ± S.E.M., α1D” value [5] was 1.03 ± 0.09 and the Kb ([5]; read-out: pA2 ± S.E.M., α1D (converted)) was 4.9 nM.
